Measured values: US9630958B2, “Triazine compounds” (Sphaera Pharma Pte. Ltd., priority 2012, dated 2017)

Key:
[1] = molecular target: T1, Recombinant mTOR (FRAP1) (Homo sapiens, UniProt P42345); experiment: mTOR in vitro kinase assay (TR-FRET, phosphorylation of GFP-4E-BP1); assay type: biochemical; details: for inhibition at 1 µM: 1 uM compound, read-out: mTOR % Inhib@1 uM; for IC50: 8 μM ATP, 400 nM GFP-4E-BP1
T1 construct: purchased Invitrogen
Procedure: Compounds were evaluated for mTOR activity using an in vitro kinase assay.
mTOR activity is measured in vitro by determining the level of phosphorylation of the protein substrate 4EBP-1. The phosphorylation of GFP-4E-BP1 at threonine residue is recognized by Ab Tb-Anti-p4EBP1, which results in time resolved fluorescence energy transfer (TR-FRET) between GFP and Terbium in the Ab-Protein complex.
Recombinant mTOR (FRAP1), Kinase reaction buffer, GFP-4E-BP1 and LanthaScreen Tb-anti-4E-BP1 (pThr46), TR FRET dilution buffer, Kinase Quench Buffer were obtained from Invitrogen.
Kinase reactions were performed in 10 μl volume in Corning white 384 well plates. […] The reaction was initiated by the addition of substrate (GFP-4E-BP1) and ATP at a final conc. of 400 nM and 8 μM ATP in the reaction respectively. The kinase reaction was allowed to proceed for 1 hour at room temperature before a 10 μL preparation of kinase quench buffer and Tb-labeled Antibody in TR-FRET dilution buffer was added. The final concentration of the antibody in the assay well is 2 nM and the final concentration of EDTA is 10 mM. The plate was incubated at room temperature for 1 h.
(§1) FRET signal was read in Envision Multilabel Reader with the following filters:
Excitation-330 nm and Emission 486 nm (donor) and 520 nm (acceptor).
TR FRET Ratio (Fluorescence 520 nm/Fluorescence 486 nm) was plotted against the concentration of inhibitor and data was fit to Non Linear Regression curve fit (sigmoidal dose response curve with variable slope-four parameters) using Graph Pad Prism 5.

[2] = molecular target: T2, PI3 Kinase alpha (p110 alpha/p85 alpha) (Homo sapiens, UniProt P42336); experiment: PI3K TR-FRET assay (Transcreener ADP2); assay type: biochemical; details: for IC50: PI3K alpha, 1 μM ATP, 50 μM PIP2; for inhibition at 1 µM: 1 uM compound, read-out: PI3K % Inhib@1 uM
T2 construct: purchased Invitrogen
Procedure: Enzymatic activity of PI3K alpha was measured using Time resolved Fluorescence resonance energy transfer (TR-FRET) assay. This assay utilizes ADP detection as a means to screen inhibitor potency of compounds. The Transcreener ADP2 TR-FRET Red Assay is a competitive immunoassay for ADP with a far-red, TR-FRET readout and it has been used for this purpose. The assay can be used for any enzyme class that produces ADP (Kinases, ATPases). It consists of ADP HiLyte647 Tracer, ADP^2 Antibody-Tb conjugate (800 nM), stop & detect buffer, 5 mM ATP, 5 mM ADP. The ADP HiLyte647 Tracer is bound to an ADP^2 Antibody-Tb conjugate. The excitation of the terbium complex in the UV range results in energy transfer to the tracer and emission at a higher wavelength after a time delay ADP produced by the target enzyme displaces the tracer which causes decrease in TR-FRET.
The reaction buffer used for the assay was 50 mM HEPES, pH 7.4.3 mM MgCl2, 0.05% CHAPS, 50 mM NaCl, 2 mM DTT, 1 mM EGTA. PI3 Kinase alpha (p110 alpha/p85 alpha) and PIP2 Substrate (diC8,) were procured from Invitrogen and Echelon respectively.
Kinase reactions were performed in 10 μl volume in Corning white 384 well plates. […] Reaction was initiated by the addition of substrate (PIP2) and ATP at final conc. of 50 μM and 1 μM ATP in the reaction respectively. Kinase reactions were allowed to proceed for 1 hour at room temperature before a 10 μL preparation of Transcreener ADP detection mix was added. Plate was incubated at room temperature for 1 hr. ADP-ATP standard curves were also prepared.
as §1
Excitation-330 nm and Emission 615 nm (donor) and 665 nm (acceptor). TR FRET Ratio (Fluorescence 665 nm/Fluorescence 615 nm) was converted to amount of product formed using the standard curve generated. Percentage inhibition was calculated and plotted against the concentration of inhibitor and data was fit to Non Linear Regression curve fit (sigmoidal dose response curve with variable slope-four parameters) using Graph pad prism 5 and IC50 was calculated for the compound.

T2 sequence (P42336 whole entry): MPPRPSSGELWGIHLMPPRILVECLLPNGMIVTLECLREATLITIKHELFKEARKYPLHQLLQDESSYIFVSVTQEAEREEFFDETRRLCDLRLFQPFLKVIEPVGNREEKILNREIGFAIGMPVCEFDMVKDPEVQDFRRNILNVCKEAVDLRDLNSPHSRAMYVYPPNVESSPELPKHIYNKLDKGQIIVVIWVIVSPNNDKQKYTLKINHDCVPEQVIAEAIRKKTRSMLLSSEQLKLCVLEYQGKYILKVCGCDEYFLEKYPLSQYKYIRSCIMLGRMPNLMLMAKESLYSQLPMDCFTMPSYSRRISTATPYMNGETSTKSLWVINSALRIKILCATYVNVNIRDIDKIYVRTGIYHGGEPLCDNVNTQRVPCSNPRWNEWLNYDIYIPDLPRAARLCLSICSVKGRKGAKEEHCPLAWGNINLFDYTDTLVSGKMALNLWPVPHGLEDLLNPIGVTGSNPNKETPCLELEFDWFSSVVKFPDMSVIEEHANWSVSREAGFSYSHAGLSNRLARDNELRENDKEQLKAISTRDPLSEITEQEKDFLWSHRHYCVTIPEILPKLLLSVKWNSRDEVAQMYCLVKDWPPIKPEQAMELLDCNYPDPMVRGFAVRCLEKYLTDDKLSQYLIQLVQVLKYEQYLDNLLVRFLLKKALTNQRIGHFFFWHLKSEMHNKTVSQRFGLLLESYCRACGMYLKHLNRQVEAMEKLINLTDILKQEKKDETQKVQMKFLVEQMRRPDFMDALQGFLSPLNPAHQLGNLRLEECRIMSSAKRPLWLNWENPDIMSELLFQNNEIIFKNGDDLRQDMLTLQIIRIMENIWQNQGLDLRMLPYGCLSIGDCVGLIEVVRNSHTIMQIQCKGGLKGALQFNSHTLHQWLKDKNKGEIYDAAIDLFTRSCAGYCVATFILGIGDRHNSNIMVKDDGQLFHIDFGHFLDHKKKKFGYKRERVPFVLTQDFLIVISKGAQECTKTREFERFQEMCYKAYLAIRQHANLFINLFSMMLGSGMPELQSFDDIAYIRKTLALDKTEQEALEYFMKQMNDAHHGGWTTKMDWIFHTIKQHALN
T2 sequence (P27986 whole entry partner): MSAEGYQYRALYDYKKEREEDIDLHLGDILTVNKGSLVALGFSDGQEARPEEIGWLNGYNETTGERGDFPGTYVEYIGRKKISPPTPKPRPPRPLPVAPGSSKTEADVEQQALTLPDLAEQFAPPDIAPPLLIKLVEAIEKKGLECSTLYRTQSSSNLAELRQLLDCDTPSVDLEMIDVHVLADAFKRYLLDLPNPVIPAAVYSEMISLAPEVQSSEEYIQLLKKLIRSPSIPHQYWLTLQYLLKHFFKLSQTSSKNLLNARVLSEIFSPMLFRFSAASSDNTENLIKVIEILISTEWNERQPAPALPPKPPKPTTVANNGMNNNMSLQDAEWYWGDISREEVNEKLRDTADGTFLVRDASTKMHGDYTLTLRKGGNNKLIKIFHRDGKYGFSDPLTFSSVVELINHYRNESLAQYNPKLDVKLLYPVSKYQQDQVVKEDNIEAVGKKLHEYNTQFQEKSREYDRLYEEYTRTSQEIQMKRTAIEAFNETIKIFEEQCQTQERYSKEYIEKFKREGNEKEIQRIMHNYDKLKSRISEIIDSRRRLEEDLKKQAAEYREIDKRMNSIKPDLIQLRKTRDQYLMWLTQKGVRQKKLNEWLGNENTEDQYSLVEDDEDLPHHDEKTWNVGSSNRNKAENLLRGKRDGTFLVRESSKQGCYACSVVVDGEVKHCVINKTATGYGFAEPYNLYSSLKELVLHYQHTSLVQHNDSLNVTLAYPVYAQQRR
T1 sequence (P42345 1360-2549 limits assumed): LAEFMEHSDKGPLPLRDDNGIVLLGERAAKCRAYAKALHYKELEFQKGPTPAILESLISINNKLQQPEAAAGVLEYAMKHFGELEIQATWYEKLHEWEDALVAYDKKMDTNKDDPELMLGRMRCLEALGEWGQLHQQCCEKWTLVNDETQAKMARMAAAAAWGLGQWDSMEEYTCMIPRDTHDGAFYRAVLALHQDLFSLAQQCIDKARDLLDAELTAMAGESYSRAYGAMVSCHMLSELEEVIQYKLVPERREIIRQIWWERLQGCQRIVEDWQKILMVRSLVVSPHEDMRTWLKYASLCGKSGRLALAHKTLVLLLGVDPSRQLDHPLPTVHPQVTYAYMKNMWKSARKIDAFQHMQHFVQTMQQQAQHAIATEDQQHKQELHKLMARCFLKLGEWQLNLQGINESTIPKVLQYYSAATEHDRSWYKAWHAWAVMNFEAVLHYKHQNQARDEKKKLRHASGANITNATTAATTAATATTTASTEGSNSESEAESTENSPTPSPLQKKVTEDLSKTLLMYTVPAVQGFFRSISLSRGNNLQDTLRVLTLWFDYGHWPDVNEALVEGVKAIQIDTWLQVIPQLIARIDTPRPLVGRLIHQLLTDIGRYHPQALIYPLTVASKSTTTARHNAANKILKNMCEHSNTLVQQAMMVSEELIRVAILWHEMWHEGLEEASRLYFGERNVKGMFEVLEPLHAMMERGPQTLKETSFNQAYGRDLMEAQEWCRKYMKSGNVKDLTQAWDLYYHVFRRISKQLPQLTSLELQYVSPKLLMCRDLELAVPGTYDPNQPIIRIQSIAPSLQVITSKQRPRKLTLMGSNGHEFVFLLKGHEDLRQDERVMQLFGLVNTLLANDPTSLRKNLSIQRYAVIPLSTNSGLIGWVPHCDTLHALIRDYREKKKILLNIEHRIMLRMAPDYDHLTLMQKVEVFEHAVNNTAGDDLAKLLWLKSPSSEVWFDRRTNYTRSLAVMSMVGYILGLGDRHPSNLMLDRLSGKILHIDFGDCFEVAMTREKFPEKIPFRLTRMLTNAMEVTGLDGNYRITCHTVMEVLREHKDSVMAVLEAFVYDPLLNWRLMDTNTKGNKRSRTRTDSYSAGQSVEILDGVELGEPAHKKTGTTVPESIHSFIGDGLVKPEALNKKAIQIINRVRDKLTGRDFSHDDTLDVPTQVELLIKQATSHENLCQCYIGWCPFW

Compound | inhibition at 1 µM [1] [%] | IC50 [1] [µM] | IC50 [2] [µM] | inhibition at 1 µM [2] [%]
CN(C)C(=O)N1CCC(Oc2nc(-c3cnc(N)s3)nc(N3CCOCC3)n2)CC1 [Compound 10003, 4-(4-(2-aminothiazol-5-yl)-6-morpholino-1,3,5-triazin-2-yloxy)-N,N-dimethylpiperidine-1-carboxamide] | > 50 | < 1 | < 1 | 
C[C@@H]1COCCN1c1nc(Oc2ccc(C(=O)N(C)C)cc2)nc(-c2cnc(N)s2)n1 [Compound 10004, (R)-4-(4-(2-aminothiazol-5-yl)-6-(3-methylmorpholino)-1,3,5-triazin-2-yloxy)-N,N-dimethylbenzamide] | < 50 | < 1 | > 1 | 
C[C@H]1COCCN1c1nc(Oc2ccc(C(=O)N(C)C)cc2)nc(-c2cnc(N)s2)n1 [Compound 10005, (S)-4-(4-(2-aminothiazol-5-yl)-6-(3-methylmorpholino)-1,3,5-triazin-2-yloxy)-N,N-dimethylbenzamide] | > 50 | < 1 | < 1 | 
CC1COCCN1c1nc(Oc2ccc(C(=O)N(C)C)cc2)nc(-c2cnc(N)s2)n1 (stereo not drawn) [Compound 10006, 4-(4-(2-aminothiazol-5-yl)-6-(3-methylmorpholino)-1,3,5-triazin-2-yloxy)-N,N-dimethylbenzamide] | < 50 |  | > 1 | > 50
CNc1ncc(-c2nc(Oc3ccc(C(=O)N(C)C)cc3)nc(N3CCOCC3)n2)s1 [Compound 10007, N,N-dimethyl-4-(4-(2-(methylamino)thiazol-5-yl)-6-morpholino-1,3,5-triazin-2-yloxy)benzamide] | > 50 | < 1 | > 1 | 
C[C@H]1COCCN1c1nc(Oc2ccc(C(=O)N(C)C)cc2F)nc(-c2cnc(N)s2)n1 [Compound 10010, (S)-4-(4-(2-aminothiazol-5-yl)-6-(3-methylmorpholino)-1,3,5-triazin-2-yloxy)-3-fluoro-N,N-dimethylbenzamide] | > 50 | < 1 | < 1 | > 50
CN(C)C(=O)c1ccc(Oc2nc(-c3cnc(N)s3)nc(N3[C@@H]4CC[C@H]3COC4)n2)cc1 [Compound 10011, 4-(4-(2-aminothiazol-5-yl)-6-((1R,5S)-3-oxa-8-azabicyclo[3.2.1]octan-8-yl)-1,3,5-triazin-2-yloxy)-N,N-dimethylbenzamide] | > 50 | < 1 | > 1 | 
CN(C)C(=O)c1ccc(Oc2nc(-c3cnc(N)cc3C(F)(F)F)nc(N3CCOCC3)n2)cc1 [Compound 10015, 4-(4-(6-amino-4-(trifluoromethyl)pyridin-3-yl)-6-morpholino-1,3,5-triazin-2-yloxy)-N,N-dimethylbenzamide] | > 50 | < 1 | < 1 | 
CN(C)C(=O)c1ccc(Oc2nc(-c3cnc(N)s3)nc(N3CCOCC3)n2)cc1 [Compound 10017, 4-(4-(2-aminothiazol-5-yl)-6-morpholino-1,3,5-triazin-2-yloxy)-N,N-dimethylbenzamide] |  | < 1 | < 1 | 
C[C@@H]1CN(c2nc(Oc3ccc(C(=O)N(C)C)cc3F)nc(-c3cnc(N)s3)n2)C[C@@H](C)O1 [Compound 10070, 4-((4-2-Aminothiazol-5-yl)-6-((2R,6R)-2,6-dimethylmorpholino)-1,3,5-triazin-2-yl)oxy-3-fluoro-N,N-dimethylbenzamide] |  | < 1 |  | 
CN(C)C(=O)c1ccc(Oc2nc(-c3cnc(N)s3)nc(N3CCOCC34CCCC4)n2)c(F)c1 [Compound 10083, 4-((4-(2-Aminothiazol-5-yl)-6-(9-oxa-6-azaspiro[4.5]decan-6-yl)-1,3,5-triazin-2-yl)oxy)-3-fluoro-N,N-dimethylbenzamide] |  |  | < 1 | 
C[C@H]1CN(c2nc(Oc3ccc(C(=O)N(C)C)cc3F)nc(-c3cnc(N)s3)n2)C[C@H](C)O1 [Compound 10084, 4-((4-2-Aminothiazol-5-yl)-6-((2S,6S)-2,6-dimethylmorpholino)-1,3,5-triazin-2-yl)oxy-3-fluoro-N,N-dimethylbenzamide] |  | < 1 |  | 
C[C@H]1CN(c2nc(Oc3ccc(C(=O)N(C)C)cc3F)nc(-c3cnc(N)s3)n2)[C@@H](C)[C@@H](C)O1 [Compound 10088, 4-((4-(2-Aminothiazol-5-yl)-6-((2R,3S,6S)-2,3,6-trimethylmorpholino)-1,3,5-triazin-2-yl)-oxy)-3-fluoro-N,N-dimethylbenzamide] | < 50 |  |  | 
C[C@H]1COCCN1c1nc(Oc2ccc(C(=O)N(C)C)cc2)nc(-c2cnc(NC(=O)c3cccnc3)s2)n1 [Compound 10094, (S)-N-(5-(4-(4-(dimethylcarbamoyl)phenoxy)-6-(3-methylmorpholino)-1,3,5-triazin-2-yl)thiazol-2-yl)nicotinamide] |  |  |  | < 50
Nc1ccc(-c2nc(SCc3ccccc3)nc(N3CCOCC3)n2)cn1 [Compound 10175, 5-(4-(benzylthio)-6-morpholino-1,3,5-triazin-2-yl)pyridine-2-amine] |  |  | < 1 | 
CN(C)C(=O)c1ccc(Oc2nc(-c3ccc(NN)nc3)nc(N3CCOCC3)n2)cc1 [Compound 10177, 4-((4-(6-hydrazinylpyridin-3-yl)-6-morpholino-1,3,5-triazin-2-yl)oxy)-N,N-dimethylbenzamide] |  |  | < 1 | 
CN(C)C(=O)c1cccc(Oc2nc(-c3ccc(N)nc3)nc(N3CCOCC3)n2)c1 [Compound 10183, 3-((4-(6-aminopyridin-3-yl)-6-morpholino-1,3,5-triazin-2-yl)oxy)-N,N-dimethylbenzamide] |  |  | < 1 | 
CN(C)C(=O)Cc1cccc(Oc2nc(-c3ccc(N)nc3)nc(N3CCOCC3)n2)c1 [Compound 10184, 2-(3-((4-(6-aminopyridin-3-yl)-6-morpholino-1,3,5-triazin-2-yl)oxy)phenyl)-N,N-dimethylacetamide] |  |  | < 1 | 
CN(C)C(=O)N1CCC(Oc2nc(-c3ccc(N)nc3)nc(N3CCOCC3)n2)C1 (stereo not drawn) [Compound 10186, 3-((4-(6-aminopyridin-3-yl)-6-morpholino-1,3,5-triazin-2-yl)oxy)-N,N-dimethylpyrrolidine-1-carboxamide] |  |  | < 1 | 
CN(C)C(=O)N1CCC(COc2nc(-c3ccc(N)nc3)nc(N3CCOCC3)n2)C1 (stereo not drawn) [Compound 10187, 3-(((4-(6-aminopyridin-3-yl)-6-morpholino-1,3,5-triazin-2-yl)oxy)methyl)-N,N-dimethylpyrrolidine-1-carboxamide] |  |  | < 1 | 
Nc1ncc(-c2nc(N3CCOCC3)nc(N3CCNC(=O)CC3)n2)s1 [Compound 10198, 1-(4-(2-aminothiazol-5-yl)-6-morpholino-1,3,5-triazin-2-yl)-1,4-diazepan-5-one] |  |  | < 1 | 
C[C@@H]1CN(c2nc(Oc3ccc(C(=O)N(C)C)cc3F)nc(-c3cnc(N)s3)n2)[C@H](C)CO1 [Compound 10205, 4-((4-(2-aminothiazol-5-yl)-6-((2R,5R)-2,5-dimethylmorpholino)-1,3,5-triazin-2-yl)oxy)-3-fluoro-N,N-dimethylbenzamide] |  | < 1 |  | 
CN(C)C(=O)c1ccc(Oc2nc(-c3cnc(N)s3)nc(N3CCO[C@@H]4CCC[C@@H]43)n2)c(F)c1 [Compound 10206] |  | < 1 |  | 
CC1COCCN1c1nc(Oc2ccc(C(=O)N(C)C)cc2F)nc(-c2ccc(N)nc2)n1 (stereo not drawn) [Compound 10207, 4-((4-(6-aminopyridin-3-yl)-6-(3-methylmorpholino)-1,3,5-triazin-2-yl)oxy)-3-fluoro-N,N-dimethylbenzamide] |  | < 1 |  | 
